# Legend:
# human CB1 receptor = biological target: T1, human CB1 receptor (Homo sapiens, UniProt P21554); assay: CB1 receptor affinity ([3H]-CP-55,940 displacement, HEK cell membranes); type: binding; conditions: displacement of radioligand [3H]-CP-55,940
# T1 construct: expressed in transfected cells; host or cells: human embryonic kidney (HEK) cells, Semliki Forest Virus system, membrane preparations
# Experimental: (§1) The affinity of the compounds of the invention for cannabinoid receptors was determined using membrane preparations of human embryonic kidney (HEK) cells in which the human CB1 receptor is transiently transfected using a Semliki Forest Virus system in conjunction with [3H]-CP-55,940 as radioligand. After incubation of freshly prepared cell membrane preparation with the [^3H]-ligand, with or without addition of compounds of the invention, separation of bound and free ligand was performed by filtration over glass fiber filters. Radioactivity on the filter was measured by scintillation counting.
# (§2) The ability of the compounds to displace the radioligand [^3H]-CP-55,940 was measured at a concentration of 10 μM and values provided as [% inhibition @ 10 μM] both for the CB1 and CB2 receptor assay, The lower % inhibition is, the lower the likelihood of side effects based on CB1 or CB2 receptor inhibition is.
# human CB2 receptor = biological target: T2, human CB2 receptor (Homo sapiens, UniProt P34972); assay: CB2 receptor affinity ([3H]-CP-55,940 displacement, HEK cell membranes); type: binding; conditions: displacement of radioligand [3H]-CP-55,940
# T2 construct: expressed in transfected cells; host or cells: human embryonic kidney (HEK) cells, Semliki Forest Virus system, membrane preparations
# T2 sequence (P34972 whole entry): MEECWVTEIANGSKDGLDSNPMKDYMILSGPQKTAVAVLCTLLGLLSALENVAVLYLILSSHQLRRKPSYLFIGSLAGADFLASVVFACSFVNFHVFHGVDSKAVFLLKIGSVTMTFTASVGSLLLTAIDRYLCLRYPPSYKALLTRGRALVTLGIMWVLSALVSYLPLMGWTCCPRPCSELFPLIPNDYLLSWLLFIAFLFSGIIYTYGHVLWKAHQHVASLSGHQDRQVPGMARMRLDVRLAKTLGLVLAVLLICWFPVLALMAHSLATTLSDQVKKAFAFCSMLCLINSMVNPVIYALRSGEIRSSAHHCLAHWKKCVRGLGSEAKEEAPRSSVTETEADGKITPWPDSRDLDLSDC
# Experimental: as §1, with “cannabinoid CB2” for “cannabinoid”, “CB2” for “CB1”, “[^3H]-CP-55,940” for “[3H]-CP-55,940”
# as §2
# ABCA1 protein = assay: Detection of upregulation of ABCA1 protein in cells (ApoA-I binding, high content image analysis); type: cell-based; conditions: THP-1 macrophage cells; for EC50: ABCA1 protein increasing efficacy; for % increase of ABCA1 at 3 μM: 24 hrs with compound
# Experimental: The ability of compounds of the invention to increase the level of ABCA1 protein is determined in replicate cultures of THP-1 macrophage cells in 96-well microplates. Cells are plated at an initial density of 100,000 cells/well in 100 μl medium and differentiated to adherent macrophages with the addition of PMA (100 nM) for 68 hrs in 10% fetal bovine serum, 3 μl/L of b-mercaptoethanol, RPMI-1640 medium. Then, cells are incubated with RPMI-1640 medium containing 1% FCS, 25 μg/ml acetylated LDL, for 24 hours at 37°. Following incubation with acetylated LDL, cells are washed twice with 50 μl PBS and incubated with 100 μl of RPMI-1640 medium containing the compound of interest solubilized in DMSO for an additional 24 hrs. The final DMSO concentration in presence of cells is maintained at 0.5%. ApoA-I binding assay using High Content Image Analysis is initiated by replacing with fresh medium, RPMI without Phenol Red, 0.2% BSA containing AlexaFluor®647 labeled ApoA-I for 2 h/37° C./5% CO2. Then, cells are fixed with 4% Formaldehyde inPBS (15 min, RT). Following Nuclei are stained with Hoechst solution (3 μM PBS) and Cytoplasm with Cell Mask Blue (2 μg/ml PBS), 15 min, RT. Finally the stained cells are fixed with a second round of formaldehyde treatment. Fixed stained cells are washed and kept in PBS at 4° C. and can be read immediately until one month after preparation.
# The Alexa Fluor 647-labeled Apolipoprotein A-I (20 nM) was prepared as follows: Human recombinant Apolipoprotein A-I (ApoA-I) was exchanged to a buffer of 0.02 M NaHCO3 at pH 8.2 on an NAP desalting column (GE Healthcare) and brought to a concentration to 40 μM (1.13 mg/ml) by adjustment with the same buffer. The ApoA-I was fluorescently labeled by incubation with Alexa Fluor carboxylic acid succimidyl ester. (Alexa Fluor 647, Invitrogen A-20006) at a 2:1 molar ratio (Alexa to ApoA-I) for 1 h under shaking at RT. The remaining unconjugated label was removed by buffer exchange to 0.02M NaHCO3 at pH 8.2.
# Imaging and data collection were performed on an OPERA confocal microplate imaging reader using a 20× water immersion objective and UV360 or 405 laser to identify the cell nuclei and a 635 laser to identify the fluorescent ApoA-I. Eight fields of view are captured per well. Image capture and analysis was performed with the Acapella software. Background fluorescence detected in control wells without ApoA-I was subtracted.
# Using XLfit3 program (ID Business Solutions Ltd. UK), the model 205 for Dose Response One Site is used to calculate the EC50 values. The compounds of the present invention increase the level of ABCA1 protein by more than 45% at a concentration of 3 μM. […] Even more preferably, the compounds of the present invention have EC50 values in a range of 0.1 μM to 3 μM.
# T1 sequence (P21554 whole entry): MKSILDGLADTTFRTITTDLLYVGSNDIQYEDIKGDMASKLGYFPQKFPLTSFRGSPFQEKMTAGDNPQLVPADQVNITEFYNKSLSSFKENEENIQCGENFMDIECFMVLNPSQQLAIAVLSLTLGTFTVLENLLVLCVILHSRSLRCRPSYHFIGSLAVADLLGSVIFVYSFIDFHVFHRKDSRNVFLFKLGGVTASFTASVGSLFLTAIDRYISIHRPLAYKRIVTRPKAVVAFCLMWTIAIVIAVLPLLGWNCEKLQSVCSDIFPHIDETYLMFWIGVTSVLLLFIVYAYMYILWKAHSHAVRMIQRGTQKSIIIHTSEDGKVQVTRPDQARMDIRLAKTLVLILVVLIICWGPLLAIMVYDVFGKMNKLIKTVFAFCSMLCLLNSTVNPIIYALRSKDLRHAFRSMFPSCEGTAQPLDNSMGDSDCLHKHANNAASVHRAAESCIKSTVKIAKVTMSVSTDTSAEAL
inhibition at 10 µM (human CB1 receptor),inhibition at 10 µM (human CB2 receptor),Compound,EC50 (ABCA1 protein),% increase of ABCA1 at 3 μM (ABCA1 protein)
19%,-5%,"O=C(Nc1cnc(OCC(F)(F)F)c(-c2ccc(Cl)cc2)c1)c1ccc(O)cn1 [Example 40, 5-hydroxy-pyridine-2-carboxylic acid[5-(4-chloro-phenyl)-6-(2,2,2-trifluoro-ethoxy)-pyridin-3-yl]-amide]",3310 nM,
31%,8%,"Cc1cncc(C(=O)Nc2cnc(OCC(F)(F)F)c(-c3ccc(Cl)cc3)c2)c1 [Example 41, N-(5-(4-chlorophenyl)-6-(2,2,2-trifluoroethoxy)pyridin-3-yl)-5-methylnicotin-amide]",,>45% @ 3 μM
23%,6%,"C[C@H](Oc1ncc(NC(=O)c2cccnn2)cc1-c1ccc(Cl)cc1)C(F)(F)F [Example 42, (S)-N-(5-(4-chlorophenyl)-6-(1,1,1-trifluoropropan-2-yloxy)pyridin-3-yl)pyridazine-3-carboxamide]",8540 nM,
31%,6%,"C[C@H](Oc1ncc(NC(=O)c2cccnc2)cc1-c1ccc(Cl)cc1)C(F)(F)F [Example 43, (S)-N-(5-(4-chlorophenyl)-6-(1,1,1-trifluoropropan-2-yloxy)pyridin-3-yl)nicotinamide]",5950 nM,
15%,14%,"O=C(Nc1cnc(OCC(F)(F)F)c(-c2ccc(Cl)c(F)c2)c1)c1cccnc1 [Example 44, N-(5-(4-chloro-3-fluorophenyl)-6-(2,2,2-trifluoroethoxy)pyridin-3-yl)nicotin-amide]",1260 nM,
11%,13%,"O=C(Nc1cnc(OCC(F)(F)F)c(-c2ccc(F)c(Cl)c2)c1)c1cccnc1 [Example 45, N-(5-(3-chloro-4-fluorophenyl)-6-(2,2,2-trifluoroethoxy)pyridin-3-yl)nicotin-amide]",1030 nM,
40%,-1%,"O=C(Nc1cnc(OCC(F)(F)F)c(-c2ccc(Cl)cc2F)c1)c1cccnc1 [Example 46, N-(5-(4-chloro-2-fluorophenyl)-6-(2,2,2-trifluoroethoxy)pyridin-3-yl)nicotin-amide]",,>45% @ 3 μM
34%,5%,"CCc1ccc(-c2cc(NC(=O)c3cccnc3)cnc2OCC(F)(F)F)cc1 [Example 47, N-(5-(4-ethylphenyl)-6-(2,2,2-trifluoroethoxy)pyridin-3-yl)nicotinamide]",1360 nM,
40%,-2%,"C[C@H](Oc1ncc(NC(=O)c2cccnc2)nc1-c1ccc(Cl)cc1)C(F)(F)F [Example 48, (S)-N-(6-(4-chlorophenyl)-5-(1,1,1-trifluoropropan-2-yloxy)pyrazin-2-yl)nicotinamide]",,>45% @ 3 μM
39%,-3%,"O=C(Nc1cnc(OCC(F)(F)F)c(-c2ccc(Cl)cc2)n1)c1cccnc1 [Example 49, N-(6-(4-chlorophenyl)-5-(2,2,2-trifluoroethoxy)pyrazin-2-yl)nicotinamide]",300 nM,
34%,6%,"Cc1cc(-c2cc(NC(=O)c3cncnc3)cnc2OCC(F)(F)F)ccc1Cl [Example 52, N-(5-(4-chloro-3-methylphenyl)-6-(2,2,2-trifluoroethoxy)pyridin-3-yl)pyrimidine-5-carboxamide]",,>45% @ 3 μM
21%,0%,"O=C(Nc1cnc(OCC(F)(F)F)c(-c2ccc(Cl)c(F)c2)c1)c1cncnc1 [Example 53, N-(5-(4-chloro-3-fluorophenyl)-6-(2,2,2-trifluoroethoxy)pyridin-3-yl)pyrimidine-5-carboxamide]",,>45% @ 3 μM
21%,10%,"O=C(Nc1cnc(OCC(F)(F)F)c(-c2ccc(F)c(Cl)c2)c1)c1cncnc1 [Example 54, N-(5-(3-chloro-4-fluorophenyl)-6-(2,2,2-trifluoroethoxy)pyridin-3-yl)pyrimidine-5-carboxamide]",,>45% @ 3 μM
35%,4%,"O=C(Nc1cnc(OCC(F)(F)F)c(-c2ccc(Cl)cc2F)c1)c1cncnc1 [Example 55, N-(5-(4-chloro-2-fluorophenyl)-6-(2,2,2-trifluoroethoxy)pyridin-3-yl)pyrimidine-5-carboxamide]",,>45% @ 3 μM
35%,0%,"CCc1ccc(-c2cc(NC(=O)c3cncnc3)cnc2OCC(F)(F)F)cc1 [Example 56, N-(5-(4-ethylphenyl)-6-(2,2,2-trifluoroethoxy)pyridin-3-yl)pyrimidine-5-carboxamide]",,>45% @ 3 μM
0%,-18%,"Cc1cc(-c2cc(NC(=O)c3ccnc(O)c3)cnc2OCC(F)(F)F)ccc1Cl [Example 57, N-(5-(4-chloro-3-methylphenyl)-6-(2,2,2-trifluoroethoxy)pyridin-3-yl)-2-hydroxyisonicotinamide]",,>45% @ 3 μM
3%,-13%,"Cc1cc(-c2cc(NC(=O)c3cn(C)nc3C)cnc2OCC(F)(F)F)ccc1Cl [Example 58, N-(5-(4-chloro-3-methylphenyl)-6-(2,2,2-trifluoroethoxy)pyridin-3-yl)-1,3-dimethyl-1H-pyrazole-4-carboxamide]",2200 nM,
22%,18%,"Cc1cc(-c2cc(NC(=O)c3c(F)ccnc3F)cnc2OCC(F)(F)F)ccc1Cl [Example 59, N-(5-(4-chloro-3-methylphenyl)-6-(2,2,2-trifluoroethoxy)pyridin-3-yl)-2,4-difluoronicotinamide]",3900 nM,
38%,-2%,"O=C(Nc1cnc(OCC(F)(F)F)c(-c2ccc(Cl)cc2)c1)c1ccccc1O [Example 60, N-(5-(4-chlorophenyl)-6-(2,2,2-trifluoroethoxy)pyridin-3-yl)-2-hydroxy-benzamide]",,>45% @ 3 μM
17%,12%,"Cc1cc(-c2cc(NC(=O)c3cncc(C#N)c3)cnc2OCC(F)(F)F)ccc1Cl [Example 61, N-(5-(4-chloro-3-methylphenyl)-6-(2,2,2-trifluoroethoxy)pyridin-3-yl)-5-cyanonicotinamide]",,>45% @ 3 μM

Compound,inhibition at 10 µM (human CB1 receptor),inhibition at 10 µM (human CB2 receptor),EC50 (ABCA1 protein),% increase of ABCA1 at 3 μM (ABCA1 protein)
"O=C(Nc1cnc(OC2CCC2)c(-c2ccc(Cl)cc2)n1)c1cccnc1 [Example 50, N-(6-(4-chlorophenyl)-5-cyclobutoxypyrazin-2-yl)nicotinamide]",39%,-1%,1500 nM,
"O=C(Nc1cnc(OC2CCC2)c(-c2ccc(Cl)cc2)n1)c1cncnc1 [Example 51, N-(6-(4-chlorophenyl)-5-cyclobutoxypyrazin-2-yl)pyrimidine-5-carboxamide]",48%,6%,,>45% @ 3 μM
